The results in this text go back to ChEMBL document CHEMBL1697723, “A predictive ligand-based Bayesian model for human drug-induced liver injury” (Drug Metab Dispos, 2010).

Structures are written as SMILES. Residues, ends and D or L forms follow the SMILES beside them.

One data set deals with Hepatotoxicity. Nature of the data set: Human drug-induced liver injury (DILI) modelling dataset from Ekins et al.
Settings: not given
Take `C=C1[C@@H]2CCC3[C@@](CC[C@@H]4[C@H](C(=O)O)C[C@@H](O[C@@H]5O[C@H](CO)[C@@H](OS(=O)(=O)[O-])[C@H](OS(=O)(=O)[O-])[C@H]5OC(=O)CC(C)C)C[C@@]34C)(C2)[C@@H]1O.[K+].[K+]` (stereo partly specified) [ATRACTYLOSIDE]: the Hepatotoxicity result is reported as “DILI positive (training set)”.
Same read-out and setting: the same measure for `[N-]=[N+]=CC(=O)OC[C@H](N)C(=O)O` [AZASERINE]: “DILI positive (training set)”.
As to `CN1CCC(=C2c3ccccc3CCc3cccnc32)CC1.O=C(O)/C=C\C(=O)O.O=C(O)/C=C\C(=O)O` [AZATADINE MALEATE], the Hepatotoxicity entry is listed as “DILI positive (test set)”.
For the molecule `CC[C@H]1OC(=O)[C@H](C)[C@@H](O[C@H]2C[C@@](C)(OC)[C@@H](O)[C@H](C)O2)[C@H](C)[C@@H](O[C@@H]2O[C@H](C)C[C@H](N(C)C)[C@H]2O)[C@](C)(O)C[C@@H](C)CN(C)[C@H](C)[C@@H](O)[C@]1(C)O` [AZITHROMYCIN], the Hepatotoxicity result is on record as “DILI negative (test set)”.
On the same count and under the same terms, the result for `CC1(C)S[C@@H]2[C@H](NC(=O)[C@H](NC(=O)N3CCNC3=O)c3ccccc3)C(=O)N2[C@H]1C(=O)[O-].[Na+]` [AZLOCILLIN SODIUM] reads “DILI negative (test set)”.
Still for that read-out and setting: the result for `C[C@H]1[C@H](NC(=O)/C(=N\OC(C)(C)C(=O)O)c2csc(N)n2)C(=O)N1S(=O)(=O)O` [AZTREONAM] reads “DILI negative (training set)”; that for `CC[C@H](C)[C@H](N)C1=N[C@H](C(=O)N[C@@H](CC(C)C)C(=O)N[C@H](CCC(=O)O)C(=O)N[C@H](C(=O)N[C@H]2CCCCNC(=O)[C@H](CC(N)=O)NC(=O)[C@@H](CC(=O)O)NC(=O)[C@H](Cc3cnc[nH]3)NC(=O)[C@@H](Cc3ccccc3)NC(=O)[C@H]([C@@H](C)CC)NC(=O)[C@@H](CCCN)NC2=O)[C@@H](C)CC)CS1` [BACITRACIN] (HELM PEPTIDE1{[CC[C@H](C)[C@H](N)C1=N[C@H](C(=O)[*:2])CS1].L.[dE].I.K.[NCCC[C@@H](N[*:1])C(=O)[*:2]].I.[dF].H.[dD].N}$PEPTIDE1,PEPTIDE1,5:R3-11:R2$$$V2.0), “DILI negative (training set)”; that for `CN(C)C(=O)Oc1cc(OC(=O)N(C)C)cc(C(O)CNC(C)(C)C)c1` (stereo unspecified) [BAMBUTEROL], “DILI negative (training set)”.
On the same count and under the same terms, the same measure for `CCC(=O)OCC(=O)[C@@]1(OC(=O)CC)[C@@H](C)C[C@H]2[C@@H]3CCC4=CC(=O)C=C[C@]4(C)[C@@]3(Cl)[C@@H](O)C[C@@]21C` [BECLOMETHASONE DIPROPIONATE]: “DILI negative (training set)”.
On to `CCOC(=O)[C@H](CCc1ccccc1)N[C@H]1CCc2ccccc2N(CC(=O)O)C1=O` [BENAZEPRIL], for which the Hepatotoxicity result is on record as “DILI negative (training set)”.
On the same count and under the same terms, the result for `CC(C(=O)O)c1ccc2oc(-c3ccc(Cl)cc3)nc2c1` (stereo unspecified) [BENOXAPROFEN] reads “DILI positive (test set)”.
Same read-out and setting: the same measure for `CCc1oc2ccccc2c1C(=O)c1cc(Br)c(O)c(Br)c1` [BENZBROMARONE]: “DILI positive (training set)”.
The same measure, in the same setting: the same measure for `CC(C)COCC(CN(Cc1ccccc1)c1ccccc1)N1CCCC1.Cl.O` (stereo unspecified) [BEPRIDIL HYDROCHLORIDE]: “DILI positive (training set)”; for `CNCCc1ccccn1.Cl.Cl` [BETAHISTINE HYDROCHLORIDE]: “DILI positive (training set)”; for `C[N+](C)(C)CC(=O)O.[Cl-]` [BETAINE HYDROCHLORIDE]: “DILI negative (test set)”.
On to `C[C@H]1C[C@H]2[C@@H]3CCC4=CC(=O)C=C[C@]4(C)[C@@]3(F)[C@@H](O)C[C@]2(C)[C@@]1(O)C(=O)CO` [BETAMETHASONE], for which the Hepatotoxicity result was “DILI negative (training set)”.
With `CC(C)(Oc1ccc(CCNC(=O)c2ccc(Cl)cc2)cc1)C(=O)O` [BEZAFIBRATE], the Hepatotoxicity result is given as “DILI negative (training set)”.
On the same count and under the same terms, the same measure for `CC(O)(CS(=O)(=O)c1ccc(F)cc1)C(=O)Nc1ccc(C#N)c(C(F)(F)F)c1` (stereo unspecified) [BICALUTAMIDE]: “DILI positive (training set)”; for `O=C(O)CCCC[C@@H]1SC[C@@H]2NC(=O)N[C@@H]21` [BIOTIN]: “DILI negative (training set)”; for `CCCC[C@@H](CC)COC(=O)c1ccccc1C(=O)OC[C@@H](CC)CCCC` [BIS(2-ETHYLHEXYL)PHTHALATE]: “DILI positive (test set)”.
Same read-out and setting: the result for `Oc1c(Cl)cc(Cl)cc1Sc1cc(Cl)cc(Cl)c1O` [BITHIONOL] reads “DILI positive (test set)”; that for `COc1ccccc1Oc1c(NS(=O)(=O)c2ccc(C(C)(C)C)cc2)nc(-c2ncccn2)nc1OCCO` [BOSENTAN], “DILI positive (test set)”.
Same read-out and setting: the result for `Nc1c(CC(=O)O)cccc1C(=O)c1ccc(Br)cc1` [BROMFENAC] reads “DILI positive (test set)”; that for `Brc1ccccc1` [BROMOBENZENE], “DILI positive (test set)”.
In the case of `NCCBr` [BROMOETHANAMINE], the Hepatotoxicity entry is recorded as “DILI positive (test set)”.
As for `CN(C)CCC(c1ccc(Br)cc1)c1ccccn1.O=C(O)/C=C\C(=O)O` (stereo unspecified) [BROMPHENIRAMINE MALEATE], the Hepatotoxicity result is listed as “DILI negative (training set)”.
As for `CCCCNc1cc(C(=O)O)cc(S(N)(=O)=O)c1Oc1ccccc1` [BUMETANIDE], the Hepatotoxicity entry is on record as “DILI positive (training set)”.
On the same count and under the same terms, the result for `CCCCN1CCCCC1C(=O)Nc1c(C)cccc1C` (stereo unspecified) [BUPIVACAINE] reads “DILI negative (training set)”; that for `CC(NC(C)(C)C)C(=O)c1cccc(Cl)c1.Cl` (stereo unspecified) [BUPROPION HYDROCHLORIDE], “DILI negative (training set)”; that for `O=C1CC2(CCCC2)CC(=O)N1CCCCN1CCN(c2ncccn2)CC1` [BUSPIRONE], “DILI negative (test set)”.
Still for that read-out and setting: the result for `CS(=O)(=O)OCCCCOS(C)(=O)=O` [BUSULFAN] reads “DILI positive (training set)”; that for `Clc1ccc(CCC(Cn2ccnc2)Sc2c(Cl)cccc2Cl)cc1.O=[N+]([O-])O` (stereo unspecified) [BUTOCONAZOLE NITRATE], “DILI negative (test set)”; that for `Cc1cc(C(C)(C)C)c(O)c(C(C)(C)C)c1` [BUTYLATED HYDROXYTOLUENE], “DILI positive (test set)”.
As for `Cn1c(=O)c2c(ncn2C)n(C)c1=O` [CAFFEINE], the Hepatotoxicity result is listed as “DILI negative (test set)”.
With `C=C1CC[C@H](O)C/C1=C/C=C1\CCC[C@]2(C)[C@@H]([C@H](C)CCCC(C)(C)O)CC[C@@H]12.O` [CALCIFEDIOL], the Hepatotoxicity entry is reported as “DILI positive (test set)”.
Still for that read-out and setting: the same measure for `CC(C)(CO)[C@@H](O)C(=O)NCCC(=O)[O-].CC(C)(CO)[C@@H](O)C(=O)NCCC(=O)[O-].[Ca+2]` [CALCIUM PANTOTHENATE]: “DILI negative (training set)”; for `COc1cc(CNC(=O)CCCC/C=C/C(C)C)ccc1O` [CAPSAICIN]: “DILI negative (test set)”.
`C[C@H](CS)C(=O)N1CCC[C@H]1C(=O)O` [CAPTOPRIL]: the Hepatotoxicity entry is reported as “DILI positive (training set)”.
Same read-out and setting: the same measure for `NC(=O)N1c2ccccc2C=Cc2ccccc21` [CARBAMAZEPINE]: “DILI positive (test set)”.
Same read-out and setting: the result for `COC(=O)Nc1nc2ccccc2[nH]1` [CARBENDAZIM] reads “DILI positive (training set)”.
The same measure, in the same setting: the same measure for `CC1(C)[C@@H](OC(=O)CCC(=O)[O-])CC[C@]2(C)[C@H]3C(=O)C=C4[C@@H]5C[C@@](C)(C(=O)[O-])CC[C@]5(C)CC[C@@]4(C)[C@]3(C)CC[C@@H]12.[Na+].[Na+]` [CARBENOXOLONE SODIUM]: “DILI negative (training set)”; for `C[C@@](Cc1ccc(O)c(O)c1)(NN)C(=O)O.O` [CARBIDOPA]: “DILI negative (training set)”; for `ClC(Cl)(Cl)Cl` [CARBON TETRACHLORIDE]: “DILI positive (test set)”.
Regarding `CC1=C(C(=O)O)N2C(=O)[C@@H](NC(=O)[C@H](N)c3ccc(O)cc3)[C@H]2SC1` [CEFADROXIL], the Hepatotoxicity entry is reported as “DILI positive (test set)”.
On the same count and under the same terms, the result for `Cn1nnnc1SCC1=C(C(=O)[O-])N2C(=O)[C@@H](NC(=O)[C@H](O)c3ccccc3)[C@H]2SC1.[Na+]` [CEFAMANDOLE SODIUM] reads “DILI positive (test set)”.
Regarding `CCN1CCN(C(=O)N[C@@H](C(=O)N[C@@H]2C(=O)N3C(C(=O)O)=C(CSc4nnnn4C)CS[C@H]23)c2ccc(O)cc2)C(=O)C1=O.O.O` [CEFOPERAZONE DIHYDRATE], the Hepatotoxicity result was “DILI negative (training set)”.
The same measure, in the same setting: the result for `CO[C@@]1(NC(=O)C2SC(=C(C(N)=O)C(=O)O)S2)C(=O)N2C(C(=O)O)=C(CSc3nnnn3C)CS[C@@H]21` (stereo partly specified) [CEFOTETAN] reads “DILI negative (test set)”.
On the same count and under the same terms, the same measure for `CN(C)CCn1nnnc1SCC1=C(C(=O)O)N2C(=O)[C@@H](NC(=O)Cc3csc(N)n3)[C@H]2SC1.Cl.Cl` [CEFOTIAM HYDROCHLORIDE]: “DILI positive (test set)”.
Still for that read-out and setting: the result for `CO[C@@]1(NC(=O)Cc2cccs2)C(=O)N2C(C(=O)O)=C(COC(N)=O)CS[C@@H]21` [CEFOXITIN] reads “DILI positive (test set)”; that for `CC(C)(O/N=C(\C(=O)N[C@@H]1C(=O)N2C(C(=O)[O-])=C(C[n+]3ccccc3)CS[C@H]12)c1csc(N)n1)C(=O)O` [CEFTAZIDIME], “DILI negative (test set)”.
`O=C(Cc1cccs1)N[C@@H]1C(=O)N2C(C(=O)[O-])=C(C[n+]3ccccc3)CS[C@H]12` [CEPHALORIDINE]: the Hepatotoxicity result is recorded as “DILI positive (test set)”.
Turning to `CC(=O)OCC1=C(C(=O)[O-])N2C(=O)[C@@H](NC(=O)Cc3cccs3)[C@H]2SC1.[Na+]` [CEPHALOTHIN SODIUM], the Hepatotoxicity entry is listed as “DILI positive (test set)”.

Staying with this data set, now noted: Liver.
Consider `Nc1ncn([C@@H]2O[C@H](CO)[C@@H](O)[C@H]2O)c(=O)n1` [AZACITIDINE], for which the Hepatotoxicity result was “DILI positive (test set)”.
Turning to `Cn1cnc([N+](=O)[O-])c1Sc1ncnc2nc[nH]c12` [AZATHIOPRINE], the Hepatotoxicity entry is recorded as “DILI positive (training set)”.
As to `Cl[C@H]1[C@H](Cl)[C@@H](Cl)[C@H](Cl)[C@@H](Cl)[C@@H]1Cl` [BETA-HEXACHLOROCYCLOHEXANE], the Hepatotoxicity result is “DILI positive (training set)”.
For `Cc1ccc(-c2cc(C(F)(F)F)nn2-c2ccc(S(N)(=O)=O)cc2)cc1` [CELECOXIB], the Hepatotoxicity result was “DILI positive (test set)”.
